Data as given in patent publication US20080085888A1, “Therapeutic Combinations” (priority 2006, published 2008).

Columns and labels:
rodent = settings: cited from earlier work; for effect on haloperidol-induced catalepsy: Levin and Lippiello 1999
CF-1 male mice = assay: Haloperidol-induced catalepsy model of EPS; format: in vivo, mouse
Text: III. Blockade of Haloperidol-Induced Catalepsy
Haloperidol-induced catalepsy model of EPS: Haloperidol is a typical or first-generation antipsychotic drug that while effective is prone to produce extrapyramidal symptoms (EPS) in humans. Other antipsychotic drugs (e.g. chlorpromazine, risperidone) can also cause EPS in patients and this side effect can limit the use of these drugs. In rodents, drug-induced catalepsy (a trance-like state of waxy immobility) can be used to assess the risk of EPS for antipsychotic drugs. Haloperidol reliably induces catalepsy in mice and rats. Test compounds that reduce catalepsy in haloperidol-treated rats may reduce antipsychotic drug-induced EPS.
Haloperidol-induced catalepsy in mice model: CF-1 male mice (Charles River, 20-30 gm, 10 mice per dose) were dosed orally with compound (b) at 0.06, 0.19, 0.6 and 1.9 mg/kg or vehicle (distilled water). Thirty minutes later, all mice were dosed with 2 mg/kg of haloperidol s.c. At 60 minutes and 4 hours after haloperidol dosing, the experimenter gently placed both forepaws of each animal on a metal bar (4 mm in diameter) that was fixed horizontally 5 cm above the test floor. The length of time (in seconds) during which each mouse maintained the initial forepaw bar position was recorded (cataleptic pose). Maximum cut-off time was 60 seconds. The same experimental design was performed on two consecutive days, and results were combined from both experiments. Therefore, the final results are from groups of 20 mice.

male Long Evans rats = assay: Blockade of D-amphetamine-induced locomotor activity (LMA); format: in vivo, rat; settings: for attenuation of amphetamine-induced locomotor activity: D-amphetamine 1 mg/kg s.c.
male, Long Evans rats = assay: Spontaneous locomotor activity (sLMA), quetiapine-induced sedation
Text: I. Attenuation of Quetiapine-Induced Sedation Using Spontaneous Locomotor Activity (sLMA)
Quetiapine is known to have sedative properties in humans. Quetiapine can induce sedation in rats and is manifested in various behaviors including reductions in spontaneous locomotor activity (sLMA). A test compound that increases sLMA in quetiapine treated rats may reduce quetiapine-induced sedation in human subjects.
The general procedure was to assess the effect of a particular drug on sLMA in rats by administering the drug after baseline assessment and then waiting an appropriate amount of time for the drug to achieve significant levels in plasma and brain.
Quetiapine was solubilized in saline plus some drops of 85% lactic acid and sonicated for around 20-30 minutes then adjusted with NaOH 1N for pH ˜4.8 to 5.0. The solution was stirred during the experiment to ensure uniform composition prior to administration. Quetiapine was administered by s.c. injection 15 minutes before testing. The dose volume was 4 ml/kg.
Compound b was dissolved in H2O and administered by oral gavage (p.o.) 30 minutes before testing with a dose volume of 1 ml/kg.
The effect of Compound b alone on sLMA was tested by administering doses of 0.006, 0.019, 0.06 or 0.19 mg/kg by oral gavage (p.o.) 30 minutes before testing. […]
Exploratory activity was monitored and quantified using open field activity systems (hardware and software) purchased from Med Associates. […]
Statistical analysis was made of total distance traveled over the 5 minutes test period for a spontaneous locomotor activity using one-way analysis ANOVA and Turkey's multiple-range analysis. All values are expressed as mean and SD.

SMILES: CNCC/C=C/c1cccnc1 [RJR 2403]
- effect on haloperidol-induced catalepsy (rodent): did not significantly worsen haloperidol-induced catalepsy, they did not reduce it either

SMILES: O=C(CCCN1CCC(O)(c2ccc(Cl)cc2)CC1)c1ccc(F)cc1 [Haloperidol, haloperidol]
- mice with catalepsy of up to 60 seconds (CF-1 male mice; haloperidol 2 mg/kg s.c. alone): 60-90 % of mice

SMILES: OCCOCCN1CCN(C2=Nc3ccccc3Sc3ccccc32)CC1 [quetiapine, 11-[4-[2-(2-hydroxyethoxy)ethyl]-1-piperazinyl]dibenzo[b,f][1,4]thiazepine]
- attenuation of amphetamine-induced locomotor activity (male Long Evans rats; quetiapine alone 10 mg/kg s.c.): did not significantly attenuate
- attenuation of amphetamine-induced locomotor activity (male Long Evans rats; quetiapine alone 10 mg/kg s.c., listed as Quetiapine): not
- attenuation of amphetamine-induced locomotor activity (male Long Evans rats; quetiapine alone 20, 40 and 60 mg/kg s.c.): significantly attenuated
- threshold for significantly reducing D-amphetamine-induced locomotor activity (male Long Evans rats; quetiapine alone s.c.): 20 mg/kg

SMILES: CN1CCCC1c1cccnc1 (centres unmarked) [nicotine]
- effect on haloperidol-induced catalepsy (rodent): did not significantly worsen haloperidol-induced catalepsy, they did not reduce it either
- effect on catalepsy in rodent (rodent; Sanberg et al. 1993): can worsen catalepsy

SMILES: CN[C@@H](C)C/C=C/c1cncc(OC(C)C)c1.O=C(O)c1ccc(O)cc1 [Compound b, (2S)-(4E)-N-Methyl-5-[3-(5-isopropoxypyridin)yl]-4-penten-2-amine p-hydroxybenzoate]
- reduction in sLMA compared to vehicle-vehicle controls (male, Long Evans rats; Compound b 0.19 mg/kg p.o. administered before quetiapine 40 mg/kg s.c. (combination)): did not result in a significant reduction in sLMA
- suppression of sLMA (male, Long Evans rats; Compound b 0.19 mg/kg p.o. and then vehicle): no significant suppression of sLMA
- effect on sLMA (total distance traveled) (male, Long Evans rats; Compound b alone, 0.006, 0.019, 0.06 and 0.19 mg/kg p.o., 30 min before testing, 5 min test): no significant effect
- reduction of D-amphetamine-induced locomotor activity (male Long Evans rats; Compound b alone 0.19 mg/kg p.o.): did not significantly reduce
- reduction of D-amphetamine-induced locomotor activity (male Long Evans rats; combination: Compound b 0.19 mg/kg p.o. with quetiapine 10 mg/kg s.c., vs D-amphetamine alone group): did significantly reduce
- reduction of D-amphetamine-induced locomotor activity (male Long Evans rats; combination: Compound b 0.019 or 0.06 mg/kg p.o. with quetiapine 10 mg/kg s.c.): did not significantly reduce
- reduction of haloperidol induced catalepsy (CF-1 male mice; 60 minute time point, Compound b 0.06, 0.19, 0.6 and 1.9 mg/kg p.o. 30 min before haloperidol 2 mg/kg s.c., P<0.05): reduced haloperidol induced catalepsy
- reduction of haloperidol induced catalepsy (CF-1 male mice; 4 hour time point, 1.9 mg/kg p.o. (only this dose) before haloperidol 2 mg/kg s.c.): significant reduction

SMILES: C[C@H](N)Cc1ccccc1 [Amphetamine, D-amphetamine]
- locomotor activity in habituated rats (male Long Evans rats; D-amphetamine 1 mg/kg s.c. alone, p<0.001): significantly increased
